# Data published in patent publication US20160113911A1, “METHODS AND COMPOSITIONS FOR THE TREATMENT OF CANCER” (THE GENERAL HOSPITAL CORPORATION, priority 2013, published 2016).
# Changes are numbered by the printed parent chain. Numbers in names are those of the source.
# B1: H188A: catalytic mutant of KDM4A (protein, UniProt O75164 2-1064, looked up, variant H188A)
# Lysine-specific demethylase 4A: ASESETLNPSARIMTFYPTMEEFRNFSRYIAYIESQGAHRAGLAKVVPPKEWKPRASYDDIDDLVIPAPIQQLVTGQSGLFTQYNIQKKAMTVREFRKIANSDKYCTPRYSEFEELERKYWKNLTFNPPIYGADVNGTLYEKHVDEWNIGRLRTILDLVEKESGITIEGVNTPYLYFGMWKTSFAWATEDMDLYSINYLHFGEPKSWYSVPPEHGKRLERLAKGFFPGSAQSCEAFLRHKMTLISPLMLKKYGIPFDKVTQEAGEFMITFPYGYHAGFNHGFNCAESTNFATRRWIEYGKQAVLCSCRKDMVKISMDVFVRKFQPERYKLWKAGKDNTVIDHTLPTPEAAEFLKESELPPRAGNEEECPEEDMEGVEDGEEGDLKTSLAKHRIGTKRHRVCLEIPQEVSQSELFPKEDLSSEQYEMTECPAALAPVRPTHSSVRQVEDGLTFPDYSDSTEVKFEELKNVKLEEEDEEEEQAAAALDLSVNPASVGGRLVFSGSKKKSSSSLGSGSSRDSISSDSETSEPLSCRAQGQTGVLTVHSYAKGDGRVTVGEPCTRKKGSAARSFSERELAEVADEYMFSLEENKKSKGRRQPLSKLPRHHPLVLQECVSDDETSEQLTPEEEAEETEAWAKPLSQLWQNRPPNFEAEKEFNETMAQQAPHCAVCMIFQTYHQVEFGGFNQNCGNASDLAPQKQRTKPLIPEMCFTSTGCSTDINLSTPYLEEDGTSILVSCKKCSVRVHASCYGVPPAKASEDWMCSRCSANALEEDCCLCSLRGGALQRANDDRWVHVSCAVAILEARFVNIAERSPVDVSKIPLPRFKLKCIFCKKRRKRTAGCCVQCSHGRCPTAFHVSCAQAAGVMMQPDDWPFVVFITCFRHKIPNLERAKGALQSITAGQKVISKHKNGRFYQCEVVRLTTETFYEVNFDDGSFSDNLYPEDIVSQDCLQFGPPAEGEVVQVRWTDGQVYGAKFVASHPIQMYQVEFEDGSQLVVKRDDVYTLDEELPKRVKSRLSVASDMRFNEIFTEKEVKQEKKRQRVINSRYREDYIEPALYRAIME
# B2: 2A-R1025C*: KDM4A mutation (protein, UniProt O75164 2-1064, looked up, variant R1025C)
# Lysine-specific demethylase 4A: B1 Lysine-specific demethylase 4A with A187H, R1024C
# B3: Suv39H1: H3K9me3 methyltransferase, overexpressed by transfection (protein, UniProt O43463 1-412, looked up)
# Histone-lysine …: MAENLKGCSVCCKSSWNQLQDLCRLAKLSCPALGISKRNLYDFEVEYLCDYKKIREQEYYLVKWRGYPDSESTWEPRQNLKCVRILKQFHKDLERELLRRHHRSKTPRHLDPSLANYLVQKAKQRRALRRWEQELNAKRSHLGRITVENEVDLDGPPRAFVYINEYRVGEGITLNQVAVGCECQDCLWAPTGGCCPGASLHKFAYNDQGQVRLRAGLPIYECNSRCRCGYDCPNRVVQKGIRYDLCIFRTDDGRGWGVRTLEKIRKNSFVMEYVGEIITSEEAERRGQIYDRQGATYLFDLDYVEDVYTVDAAYYGNISHFVNHSCDPNLQVYNVFIDNLDERLPRIAFFATRTIRAGEELTFDYNMQVDPVDMESTRMDSNFGLAGLPGSPKKRVRIECKCGTESCRKYLF
# modifications: Halo tag
# notes: H3K9me3 methyltransferase, overexpressed by transfection
# Experiments:
# HEK 293T cells = experiment: Monitored cell proliferation assay (xCELLigence growth curves, doubling time); type: cell-based, human
# Experimental: Seventy two hours post transfection 1×10^4 HEK 293T cells were seeded per well of a 96 well plate, and then treated after 24h. Cell proliferation was monitored with an xCELLigence system (Roche) (Vistejnova et al., 2009).
# [1] = system: 1q12h copy gain in RPE cells; experiment: FISH for site-specific copy gain; type: cell-based, human; conditions: for hypoxia-dependent copy gain of 1q12h / hypoxia-induced 1q12h copy number gains / KDM4A-dependent 1q12h copy gain upon co-expression: RPE cells; for hypoxia-dependent copy gain of 1q12h: 1% O2 24 hours, JIB-04 62.5 nM or 2 mM succinate pre-treatment, or overexpression; for hypoxia-induced 1q12h copy number gains: 4% oxygen, transfection or 2 mM succinate for 24 hours; for KDM4A-dependent 1q12h copy gain upon co-expression: transient transfection 24 hours
# Experimental: FISH was performed as described in (Manning et al., 2010). Probes for 1q12h, 1q telomere, and chromosome 2, 6, 8, and X alpha satellite were purchased from Rainbow Scientific. Probes for 1q12 (RP11-80L2), Xq13.2 (RP11-451A22), Xq13.1 (RP11-177A4) were purchased as BAC clones from Children's Hospital Oakland Research Institute (CHORI BacPac) FISH verified clone repository. Oligonucleotide probes for 1q21.2 (BCL9) and 1q23.3 were purchased from Agilent (SureFISH). BACS were prepared utilizing PureLink HiPure Plasmid Filter Maxiprep kit (Life Technologies) using the recommended modified wash buffer. Probes were nick translated (Abbot Molecular Kit) in the presence of fluorescently labeled dTTP (Enzo Life Science). Images of multiple planes of fields of nuclei were acquired on an Olympus IX81 Spinning Disk Microscope and analyzed using Slidebook 5.0 software. We used a conservative scoring metric for copy gain. Any foci that were touching were scored as a single foci to prevent increased numbers due to normally replicated foci. For RPE cells, copy gain was scored as any cell with 3 or more distinct foci. For 293T cells, copy gain was scored for any cell with 5 or more distinct foci. For RPE cells each experiment includes at least one replicate from the two different polyclonal stable cell preparations. At least 100 cells for each replicate were scored for all experiments except analysis of single cell clones.
# Cells were plated onto culture dishes and allowed to adhere for 20-24 hrs in normoxia (5% CO2, 21% O2, and 74% N2). For hypoxic treatment, cells were maintained in a HERA Cell 150™ incubator (Thermo Scientific) flushed with 5% CO2, 1% O2 or 4% O2, and balanced with N2 for the duration of the experiment. Incubator calibrations were carried out by Bianchi Associates Calibrations/Verifications.
# To release, cells were washed twice with culture medium pre-conditioned in normoxia or hypoxia, and supplied with fresh pre-conditioned media. For JIB-04 treatment, normoxic cells were pre-treated with 62.5 nM JIB-04 (Xcessbio) for 24 hrs, then treated again with JIB-04 and either transferred to 1% O2 or maintained in normoxia for an additional 24 hrs. Succinate was administered at a final concentration of 2 mM and cells were either maintained in normoxia for 72 hrs or maintained in normoxia for 48 hrs prior to being transferred to 1% O2 for 24 hrs.
# FISH was performed as described in (Black et al., 2013; Manning et al., 2010). Probes for 1q12h, 1q telomere, chromosome 8 centromere (alpha satellite), and X centromere (alpha satellite) were purchased from Rainbow Scientific. Probes for Xq13.1 (RP11-177A4), Zebrafish BCL9 (CH73-15J19) and Zebrafish IGBP1 (CH73-223D24) were purchased as BAC clones from Children's Hospital Oakland Research Institute (CHORI BacPac) clone repository. Probes for 1q21.2 (BCL9) and 1q23.3 were purchased from Agilent (SureFISH).
# FISH was performed as described in (Black et al., 2013; Manning et al., 2010). Probes for 1q12h, 1q telomere, chromosome 8 centromere (alpha satellite), and X centromere (alpha satellite) were purchased from Rainbow Scientific. Probes for Xq13.1 (RP11-177A4), Zebrafish BCL9 (CH73-15J19) and Zebrafish IGBP1 (CH73-223D24) were purchased as BAC clones from Children's Hospital Oakland Research Institute (CHORI BacPac) clone repository. Probes for 1q21.2 (BCL9) and 1q23.3 were purchased from Agilent (SureFISH). BACS were prepared utilizing PureLink HiPure™ Plasmid Filter Maxiprep kit (Life Technologies) using the recommended modified wash buffer. Probes were nick translated (Abbot Molecular Kit) in the presence of fluorescently labeled dTTP (Enzo Life Science). Images of multiple planes of fields of nuclei were acquired on an Olympus IX81 T Spinning Disk Microscope and analyzed using Slidebook™ 5.0 software. A conservative scoring metric was used for copy gain. Any foci that were touching were scored as a single copy to prevent increased numbers due to normally replicated foci.
# KDM4A = KDM4A protein levels by western blot; type: cell-based, human; conditions: 293T cells, fractionated in presence of NEM
# Experimental: Western blot analyses were performed according to (Black et al., 2010).
# Western blots were performed as in (Black et al., 2010). Briefly, adherent cells were either scraped directly into PBS, or washed with PBS, trypsinized and collected by centrifuging at 2,000 RPM for 5 minutes. For preparation of whole-cell lysates, cell pellets were washed once in ice-cold PBS and resuspended in RIPA lysis buffer [50 mM Tris pH 7.4, 150 mM NaCl, 0.25% Sodium Deoxycholate, 1% NP40, 1 mM EDTA, 10% Glycerol] supplemented with complete protease inhibitor and PhosSTOP™ phosphatase inhibitor cocktails (Roche). Cells were lysed on ice for 15 minutes and immediately frozen at −80° C. for 10 min. Lysates were subsequently sonicated at 70% amplitude for 15 minutes in a QSonica Q800R™ and cleared of cell debris by centrifuging at 12,000 RPM for 15 minutes, before being analyzed by western blotting. For HIF1α expression, adherent cells were washed twice with ice-cold PBS and scraped directly in warmed 1× Laemmli buffer. Samples were sonicated at 70% amplitude for 15 minutes and boiled immediately prior to western blotting.
# [2] = system: cells depleted of KDM4A (shA10); experiment: Rapamycin sensitivity of KDM4A-depleted (shA10) cells transfected with wild-type or mutant KDM4A; type: cell-based; conditions: shA10 depletion background
# Experimental: Cells were depleted of KDM4A (shA10) and transfected with wild-type (WT) or mutant KDM4A. […] This differed from WT expression in the depletion background, which was less sensitive. […]
# The effect of KMD4A mutations on drug sensitivity was examined by depleting cells of KDM4A (shA10) and then transfecting with wild-type or mutant KDM4A. The sensitivity of the cells to rapamycin was then determined. […] This differed from WT expression in the depletion background, which was less sensitive.
# H3K36me3 = experiment: H3K36 demethylase activity of KDM4A variants in transfected cells (immunofluorescence); type: cell-based; set-up: key: + indicates active; − indicates inactive; +/− indicates partial acitivty; conditions: KDM4A mutations
# H3K9me3 = experiment: H3K9 demethylase activity of KDM4 variants in transfected cells; type: cell-based; set-up: key: + indicates active; − indicates inactive; +/− indicates partial acitivty; conditions: KDM4A mutations
molecule,measurement,setting,value
C[C@@H]1C[C@@H]([C@H](O)CC2CC(=O)NC(=O)C2)C(=O)[C@@H](C)C1 [Cycloheximide],"cell growth vs DMSO, KDM4A shRNA cells","HEK 293T cells; HEK293T KDM4A shRNA, 30 nM",slow growth
same,"cell growth vs DMSO, control vector cells","HEK 293T cells; HEK293T control vector, 30 nM",do not slow growth
"HP1γ: H3K9me3 binding protein, overexpressed by transfection",hypoxia-dependent copy gain of 1q12h,[1],able to abrogate hypoxic induction of site-specific copy gain
same,hypoxia-induced 1q12h copy number gains,[1],antagonized
same,KDM4A-dependent 1q12h copy gain upon co-expression,[1],significantly reduced the number of KDM4A overexpressing cells with altered copy number of 1q12h
"O=C1NC(=NCc2cccs2)S/C1=C\c1ccc2ncccc2c1 [R03306, reference compound]",1q12h copy number in KDM4A overexpressing cells upon arrest,"[1]; stable GFP-KDM4A RPE cells, arrested 20 hours",failed to display increased copy number of 1q12h
CCCS(=O)(=O)Nc1ccc(F)c(C(=O)c2c[nH]c3ncc(Cl)cc23)c1F [PLX-4720],"drug sensitivity of KDM4A shRNA cells vs control vector (growth curves, doubling time)","HEK 293T cells; HEK293T, PLX-4720",more sensitive
CCN1C(=O)C=CC1=O [NEM],hypoxia-induced changes in KDM4A levels and/or localization,KDM4A; 1% O2 6h,reduced
same,KDM4A chromatin association,KDM4A,alters the chromatin association
B1,sensitivity of cells to rapamycin,[2],did not reduce drug sensitivity
B2,H3k36 Demethylase Activity,H3K36me3,+
same,H3k9 Demethylase Activity,H3K9me3,+
same,sensitivity of cells to rapamycin,[2],equally as sensitive as KDM4A/JMJD2A depletion
B3,hypoxia-dependent copy gain of 1q12h,[1],able to abrogate hypoxic induction of site-specific copy gain
same,hypoxia-induced 1q12h copy number gains,[1],antagonized
same,KDM4A-dependent 1q12h copy gain upon co-expression,[1],sufficient to abrogate KDM4A-dependent 1q12h copy gain
